Where only a bound is given, the exact number is not on record here.

The target in the test is T1, human complement factor D (Homo sapiens, UniProt P00746).
T1 construct: purchased R&D Systems 1824-SE
T1 sequence (P00746 26-253): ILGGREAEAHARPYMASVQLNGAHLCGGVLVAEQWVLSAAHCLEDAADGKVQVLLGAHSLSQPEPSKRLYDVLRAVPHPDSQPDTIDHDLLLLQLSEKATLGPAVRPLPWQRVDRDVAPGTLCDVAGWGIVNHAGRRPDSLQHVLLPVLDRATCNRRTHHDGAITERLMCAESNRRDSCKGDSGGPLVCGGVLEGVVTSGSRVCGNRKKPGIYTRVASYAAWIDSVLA
The experiment in a line: In vitro enzyme inhibition (Z-Lys-SBzl/DTNB absorbance assay). It is filed as biochemical. The conditions noted are these: Complement Factor D (R&D Systems), substrate Z-Lys-SBzl, A405 nm; read-out: CFD IC50. The method, boiled down: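 Factor D (6.25 ng/μL before addition) preincubated 5 min RT with compound (8 points from 50 μM, 6-fold, 0.5% DMSO final) in 50 mM Tris/HCl pH 7.5, 1 M NaCl, then Z-Lys-SBzl/DTNB added (200 μM each before addition). A405 read kinetically every 30 s for 60 min; IC50 from variable-slope fit, controls with and without enzyme.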
In general, IC50 refers to the concentration that inhibits the measured activity by half. Consider `NC(=O)c1nn(CC(=O)N2[C@@H]3CC[C@@H](C3)[C@H]2C(=O)Nc2cc(C(F)(F)F)ccn2)c2ccccc12` [Example 55, 1-(2-oxo-2-((1R,3S,4S)-3-((4-(trifluoromethyl)pyridin-2-yl)carbamoyl)-2-azabicyclo[2.2.1]heptan-2-yl)ethyl)-1H-indazole-3-carboxamide], for which the IC50 is greater than 10000 nM. The same measure for `COC(=O)c1nn(CC(=O)N2[C@@H]3CC[C@@H](C3)[C@H]2C(=O)Nc2cccc(Cl)n2)c2ccccc12` [Example 82, methyl 1-(2-((1R,3S,4S)-3-((6-chloropyridin-2-yl)carbamoyl)-2-azabicyclo[2.2.1]heptan-2-yl)-2-oxoethyl)-1H-indazole-3-carboxylate]: 1000 to 10000 nM. `NC(=O)c1nn(CC(=O)N2[C@@H]3CC[C@@H](C3)[C@H]2C(=O)Nc2cccc(C3CC3)n2)c2cc(C3CC3)ccc12` [Example 5, 6-cyclopropyl-1-(2-((1R,3S,4S)-3-((6-cyclopropylpyridin-2-yl)carbamoyl)-2-azabicyclo[2.2.1]heptan-2-yl)-2-oxoethyl)-1H-indazole-3-carboxamide]: the IC50 lay within 1000 to 10000 nM. The same measure for `Cc1cccc(NC(=O)[C@@H]2[C@H]3CC[C@H](C3)N2C(=O)Cn2nc(C(N)=O)c3ccncc32)n1` [Example 7, 1-(2-((1R,3S,4S)-3-((6-methylpyridin-2-yl)carbamoyl)-2-azabicyclo[2.2.1]heptan-2-yl)-2-oxoethyl)-1H-pyrazolo[3,4-c]pyridine-3-carboxamide]: 1000 to 10000 nM. The same measure for `NC(=O)c1nn(CC(=O)N2[C@@H]3CC[C@@H](C3)[C@H]2C(=O)NCc2c(CO)ccc(Cl)c2F)c2ccccc12` [Example 120, 1-(2-((1R,3S,4S)-3-((3-chloro-2-fluoro-6-(hydroxymethyl)benzyl)carbamoyl)-2-azabicyclo[2.2.1]heptan-2-yl)-2-oxoethyl)-1H-indazole-3-carboxamide]: 1000 to 10000 nM.

Turning to `NC(=O)c1nn(CC(=O)N2[C@@H]3CC[C@@H](C3)[C@H]2C(=O)NCc2c(Br)ccc(Cl)c2F)c2ccccc12` [Example 115, 1-(2-((1R,3S,4S)-3-((6-bromo-3-chloro-2-fluorobenzyl)carbamoyl)-2-azabicyclo[2.2.1]heptan-2-yl)-2-oxoethyl)-1H-indazole-3-carboxamide], the IC50 fell in the range of 1000 to 10000 nM. The same measure for `NC(=O)c1nn(CC(=O)N2CCNC[C@H]2C(=O)Nc2cccc(Cl)n2)c2ccccc12` [Example 26, (S)-1-(2-(2-((6-chloropyridin-2-yl)carbamoyl)piperazin-1-yl)-2-oxoethyl)-1H-indazole-3-carboxamide]: greater than 10000 nM; for `NC(=O)c1nn(CC(=O)N2[C@H](C(=O)NCc3cccc(Cl)c3F)C[C@@H]3CCC[C@@H]32)c2ccc(F)cc12` [Example 166, 1-(2-((2S,3aS,6aS)-2-((3-chloro-2-fluorobenzyl)carbamoyl)hexahydrocyclopenta[b]pyrrol-1(2H)-yl)-2-oxoethyl)-5-fluoro-1H-indazole-3-carboxamide]: 100 to 1000 nM.

Regarding `NC(=O)c1nn(CC(=O)N2[C@H](C(=O)Nc3cccc(Cl)c3F)C[C@@H]3CCC[C@@H]32)c2ccccc12` [Example 158, 1-(2-((2S,3aS,6aS)-2-((3-chloro-2-fluorophenyl)carbamoyl)hexahydrocyclopenta[b]pyrrol-1(2H)-yl)-2-oxoethyl)-1H-indazole-3-carboxamide], the IC50 is 100 to 1000 nM. On to `NC(=O)c1nn(CC(=O)N2[C@H](C(=O)Nc3ccnc(Cl)c3)C[C@@H]3CCC[C@@H]32)c2ccccc12` [Example 163, 1-(2-((2S,3aS,6aS)-2-((2-chloropyridin-4-yl)carbamoyl)hexahydrocyclopenta[b]pyrrol-1(2H)-yl)-2-oxoethyl)-1H-indazole-3-carboxamide], for which the IC50 was greater than 10000 nM. The same measure for `COC(=O)CC(NC(=O)[C@@H]1[C@H]2CC[C@H](C2)N1C(=O)Cn1nc(C(N)=O)c2ccccc21)c1cccc(Cl)c1F` (stereo partly drawn) [Example 142, methyl 3-((1R,3S,4S)-2-(2-(3-carbamoyl-1H-indazol-1-yl)acetyl)-2-azabicyclo[2.2.1]heptane-3-carboxamido)-3-(3-chloro-2-fluorophenyl)propanoate]: 1000 to 10000 nM; for `Cc1ccc2c(c1)c(C(N)=O)nn2CC(=O)N1[C@@H]2CC[C@@H](C2)[C@H]1C(=O)Nc1cccc(Cl)n1` [Example 61, 1-(2-((1R,3S,4S)-3-((6-chloropyridin-2-yl)carbamoyl)-2-azabicyclo[2.2.1]heptan-2-yl)-2-oxoethyl)-5-methyl-1H-indazole-3-carboxamide]: 100 to 1000 nM.

As for `NC(=O)n1cc(CC(=O)N2[C@@H]3CC[C@@H](C3)[C@H]2C(=O)NCc2cccc(Cl)c2F)c2ccccc21` [Example 99, 3-(2-((1R,3S,4S)-3-((3-chloro-2-fluorobenzyl)carbamoyl)-2-azabicyclo[2.2.1]heptan-2-yl)-2-oxoethyl)-1H-indole-1-carboxamide], the IC50 was in the range of 100 to 1000 nM. As for `NC(=O)c1nn(CC(=O)N2[C@H](C(=O)NCc3cccc(Cl)n3)C[C@@H]3CCC[C@@H]32)c2ccccc12` [Example 160, 1-(2-((2S,3aS,6aS)-2-(((6-chloropyridin-2-yl)methyl)carbamoyl)hexahydrocyclopenta[b]pyrrol-1(2H)-yl)-2-oxoethyl)-1H-indazole-3-carboxamide], the IC50 was in the range of 1000 to 10000 nM. The same measure for `NC(=O)c1nn(CC(=O)N2[C@H]3CC[C@H](CC3)[C@@H]2C(=O)NCc2cccc(Cl)c2F)c2ccccc12` [Example 148, (1S,3R,4S)-2-(2-(3-carbamoyl-1H-indazol-1-yl)acetyl)-N-(3-chloro-2-fluorobenzyl)-2-azabicyclo[2.2.2]octane-3-carboxamide]: 1000 to 10000 nM. The same measure for `NC(=O)c1nn(CC(=O)N2CCNC[C@H]2C(=O)Nc2cccc(C(F)(F)F)n2)c2ccccc12` [Example 29, (S)-1-(2-oxo-2-(2-((6-(trifluoromethyl)pyridin-2-yl)carbamoyl)piperazin-1-yl)ethyl)-1H-indazole-3-carboxamide]: greater than 10000 nM; for `CC(=O)N1CCN(C(=O)Cn2nc(C(N)=O)c3ccccc32)[C@H](C(=O)Nc2cccc(Cl)n2)C1` [Example 27, (S)-1-(2-(4-acetyl-2-((6-chloropyridin-2-yl)carbamoyl)piperazin-1-yl)-2-oxoethyl)-1H-indazole-3-carboxamide]: 1000 to 10000 nM. Then `NC(=O)c1nn(CC(=O)N2[C@@H]3CC[C@@H](C3)[C@H]2C(=O)Nc2ccc(CO)c(Cl)n2)c2ccccc12` [Example 108, 1-(2-((1R,3S,4S)-3-((6-chloro-5-(hydroxymethyl)pyridin-2-yl)carbamoyl)-2-azabicyclo[2.2.1]heptan-2-yl)-2-oxoethyl)-1H-indazole-3-carboxamide], with 1000 to 10000 nM; and `NC(=O)c1nn(CC(=O)N2[C@@H]3CC[C@@H](C3)[C@H]2C(=O)NCc2cccc(Cl)c2F)c2ccncc12` [Example 98, 1-(2-((1R,3S)-3-((3-chloro-2-fluorobenzyl)carbamoyl)-2-azabicyclo[2.2.1]heptan-2-yl)-2-oxoethyl)-1H-pyrazolo[4,3-c]pyridine-3-carboxamide], with 1000 to 10000 nM.

The record behind these values is patent US20190127366A1 (LifeSci Pharmaceuticals, Inc., priority 2015, published 2019).
